The target of one data set is T1, Yeast V-ATPase (Saccharomyces cerevisiae, UniProt P25515+P41807).
T1 construct: V-ATPase was purified as described previously from yeast[82] using the detergent dodecylmaltoside; endogenous in cells; host or cells: yeast
Briefly: Biochemical V-ATPase (ATP hydrolysis) assay. Here is the method: V-ATPase was purified as described previously from yeast[82] using the detergent dodecylmaltoside and porcine kidney[83] using the detergent glycol-diosgenin. ATPase assays with purified V-ATPase were performed as described previously. 249C (mammalian: 0.1, 1, 10, 100 μM and yeast: 5, 10 and 100 μM) or BafA1 (1 μM) were added to the reaction and compared with a negative control to which only DMSO was added. Enzyme-coupled ATPase biochemical activity assays were performed in a 96-well plate as described previously. […]
appears to cause accumulation of high molecular weight entities. Representative of 3 independent experiments. […]
observed. Data shown are mean ± SD ( n = 3) Two-tailed student’s t-test (C) ATP-dependent fluorescence quenching in yeast (me an ± SD; n = 3 ) Two-t ailed student’s t-test (D) SDS PAGE over th e cou rse of recombinant human ATP6V1H protein purification. 1. Mark ers; 2. Total l ysate (GST-fusion […]); 3. Soluble lysate; 4.
GSTrap flow-through; 5. GSTrap elute; 6. Post thrombin cleavage (target 54 kDa, GST 25 kDa); 7. Subtractive GSTrap flow -through; 8. Markers; 9. Final sample, 1 µg protein load. Repres entative of 2 independent ex periments. (E) Structure of biotin- 249C. […]
interfere with V-ATPas e binding. ( F) Experimental schematic of Bio-la yer inferometr y (B L I) .
(1 picture or pasted object on this page, not shown here)

Data set [1] relates to V-ATPase-dependent proton transport in HEK293T cells. Briefly: Proton pumping assay, FITC-Dextran-loaded lysosomes. Format: cell-based, human. Conditions: 1 h treatment. The text has this: Figure 4. […] (A) Model of the reversible assembly of V-ATPase. Cytosolic V1 subunits are depicted in blue and membrane Vo subunits in purple. Upon V-ATPase assembly, ATP is hydrolyzed to ADP accompanied by proton (H^+) pumping and luminal acidification (decrease in pH) (Created with BioRender). […] The amount of subunit B2 present in the membrane fraction indicates the amount of assembled V-ATPase. A representative Western blot is presented. […] Cells were mechanically lysed, and a fraction containing FITC-Dextran-loaded lysosomes was isolated by sedimentation centrifugation. Fluorescence was measured over time to assess pH-dependent quenching following addition of 1 mM magnesium-ATP (predetermined). […] Representative of 5 individual experiments with n = 3 for each is presented (mean ± SD) (D) Mammalian V-ATPase activity measured in the absence and presence of 1 μM 249C and 1 μM BafA1. Data shown are mean ± SD; n = 3. […]
4 × 10^6 HEK 293T cells were plated in 10-cm plates. […] Sample fluorescence was excited at 490 nm, and emission fluorescence at 520 nm was measured continuously in BioTek plate reader (Synergy) using Gen5 software (version 3.05). After initial fluorescence stabilization, 1 mM ATP and 2 mM MgCl2 were added to initiate ATPase activity and proton pumping into the lysosomes, which causes quenching of FITC in the lysosomal lumen. […]

The test system of data set [2] is NSCLC A549 (KRASG12S) xenografts. Briefly: A549 lung cancer xenograft. It counts as in vivo. As to conditions: 10 mg/kg twice daily i.p. Here is the method: Finally, to test whether 249C could inhibit autophagy and attenuate the growth of mutant KRAS-dependent cancers as a single agent in vivo, we evaluated 249C in a mouse xenograft model of lung cancer (NSCLC, A549). Briefly, we injected mutant KRAS A549 (G12S) cells into the flanks of athymic mice to establish xenografts, randomly assigned mice to vehicle control (n = 7) or 249C-recipient groups (n = 7, 10 mg/kg) with twice daily i.p. injections, and recorded tumor volume and body weight over time. […] We subsequently sacrificed all mice and excised their tumors for further investigation.
5 × 10^6 A549 cells were subcutaneously injected into the lower left flank of 6–8-week old athymic nude female mice (Charles River strain # 088, homozygous NU/NU). To assess establishment of tumors, mice were examined 5 days post-inoculation and were randomly segregated into two treatment groups [vehicle control, 10 mg/kg 249C IP, n = 7 per group] and were treated twice daily with the drug in NPM or vehicle control (5% weight aqueous solution of carboxymethyl cellulose). Tumor volumes were calculated using the formula (L × W × H)/2 with recorded caliper measurements. Survival curves and statistical analyses were performed using Excel. Animals were maintained on a standard chow diet; 12:12 dark/light cycle and in group housing in hepa-filtered cages. All animal procedures were performed under IACUC approved protocols and guidelines. Animals from both groups were weighed every 3 days. Plasma concentration was measured from blood collected using standard and established protocols.

The next data set deals with hERG (Homo sapiens, UniProt Q12809). Briefly: hERG fluorescence polarization assay. As to conditions: human. For orientation: The hERG channel carries a current that helps repolarise heart muscle cells.
The next data set relates to MEFs KRASWT. Briefly: Cell proliferation of Ras-less MEFs expressing human KRAS/BRAF. As to conditions: Mus musculus.
A further data set deals with MEFs KRAS Q61R. Described as above. Conditions: Mus musculus.

Entries after “also recorded” stand apart in the source; their conditions may differ.

T1 sequence (P25515 whole entry): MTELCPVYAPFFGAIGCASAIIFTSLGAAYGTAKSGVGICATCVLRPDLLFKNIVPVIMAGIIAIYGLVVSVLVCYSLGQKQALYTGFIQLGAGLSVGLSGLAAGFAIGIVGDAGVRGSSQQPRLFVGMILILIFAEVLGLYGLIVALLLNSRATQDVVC
T1 sequence (P41807 2-478): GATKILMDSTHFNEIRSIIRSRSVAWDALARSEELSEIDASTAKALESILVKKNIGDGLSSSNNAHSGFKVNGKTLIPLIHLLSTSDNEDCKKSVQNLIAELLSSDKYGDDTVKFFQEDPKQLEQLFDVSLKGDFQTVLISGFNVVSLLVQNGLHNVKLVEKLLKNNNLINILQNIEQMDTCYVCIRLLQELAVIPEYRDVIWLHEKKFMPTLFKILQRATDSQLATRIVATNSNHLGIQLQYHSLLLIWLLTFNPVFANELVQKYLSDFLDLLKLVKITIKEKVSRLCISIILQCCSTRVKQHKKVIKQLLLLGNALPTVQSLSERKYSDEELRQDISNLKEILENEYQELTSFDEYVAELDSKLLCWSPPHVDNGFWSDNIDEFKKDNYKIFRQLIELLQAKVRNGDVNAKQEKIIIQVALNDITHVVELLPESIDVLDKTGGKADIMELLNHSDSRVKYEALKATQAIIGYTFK
hERG, sequence (Q12809 whole entry): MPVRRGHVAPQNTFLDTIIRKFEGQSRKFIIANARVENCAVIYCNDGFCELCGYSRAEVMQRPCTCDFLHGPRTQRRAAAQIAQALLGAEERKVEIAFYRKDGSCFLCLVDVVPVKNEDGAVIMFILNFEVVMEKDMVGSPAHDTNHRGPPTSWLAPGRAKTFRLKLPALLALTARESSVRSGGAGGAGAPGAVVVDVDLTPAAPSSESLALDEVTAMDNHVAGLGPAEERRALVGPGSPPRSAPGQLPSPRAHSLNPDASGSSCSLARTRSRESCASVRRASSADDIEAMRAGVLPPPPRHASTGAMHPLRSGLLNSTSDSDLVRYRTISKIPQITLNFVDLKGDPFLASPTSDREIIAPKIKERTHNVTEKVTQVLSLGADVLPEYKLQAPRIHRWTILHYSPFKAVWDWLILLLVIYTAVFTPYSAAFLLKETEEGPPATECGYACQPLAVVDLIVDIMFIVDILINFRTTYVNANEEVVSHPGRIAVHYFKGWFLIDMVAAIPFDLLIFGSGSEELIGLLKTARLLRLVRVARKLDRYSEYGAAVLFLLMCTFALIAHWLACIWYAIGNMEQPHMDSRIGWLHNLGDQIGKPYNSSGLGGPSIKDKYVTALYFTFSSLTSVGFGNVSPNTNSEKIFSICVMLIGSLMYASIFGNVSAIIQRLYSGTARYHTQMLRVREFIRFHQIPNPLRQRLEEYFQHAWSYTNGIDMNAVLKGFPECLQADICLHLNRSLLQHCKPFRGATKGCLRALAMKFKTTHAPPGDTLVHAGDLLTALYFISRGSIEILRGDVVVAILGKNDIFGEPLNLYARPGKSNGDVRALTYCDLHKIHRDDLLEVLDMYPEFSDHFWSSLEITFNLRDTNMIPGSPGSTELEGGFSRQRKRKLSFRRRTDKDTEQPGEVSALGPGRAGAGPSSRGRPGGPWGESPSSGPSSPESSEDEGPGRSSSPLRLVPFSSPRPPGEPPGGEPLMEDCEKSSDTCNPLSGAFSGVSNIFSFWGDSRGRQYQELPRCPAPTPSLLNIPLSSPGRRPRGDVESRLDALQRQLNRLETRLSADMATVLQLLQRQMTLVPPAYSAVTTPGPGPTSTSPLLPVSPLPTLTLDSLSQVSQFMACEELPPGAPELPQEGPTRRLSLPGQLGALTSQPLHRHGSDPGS
Procedure for MEFs KRAS Q61R: (§1) Logarithmically growing cells were plated in antibiotic-free medium supplemented with 2% fetal bovine serum at a density of 5,000 cells per well. The next day, cells were treated in triplicates with increasing doses of in-house small molecule inhibitor drugs and a DMSO vehicle control for 3 days and subsequently assessed for cell viability by measurement of ATP with CellTiter-Glo Luminescent Cell Viability Assay (Promega). Signal intensity was read on a Glomax™ 96 Microplate Luminometer (Promega) with GLOMAX software (version 1.9.3) and percent cell survival was calculated based on the reading of vehicle control cells set as 100% using Excel (2012) and GraphPad Prism (version 6)Each compound was tested a minimum of 2 times with n = 3. All cell proliferation assays (cancer cell lines or MEFs) were done in a similar way.
Procedure for MEFs KRASWT: Cell proliferation assays of stable cell lines treated with V-ATPase inhibitors 249C and BafA1, HCQ analog (DC661), KRASG12C inhibitor (AMG510) and autophagy inducer (CMA). For each bar, n = 3. Representative of 3 biological replicates (mean ± SD). Two-sided t-test with no adjustments for multiple comparisons.
as §1

As usually defined, the inhibition is how much of the control response was suppressed. The term IC50 denotes the concentration at which inhibition is half-maximal. The low end stands for inhibition by little substance, the high end for a need for much substance. Consider `CN1CCOC(CNC(=O)C2(C)C(c3ccc(Cl)o3)C(c3ccc(F)cc3F)=NN2c2ccc(F)cc2F)C1` (centres unmarked) [Compound 249C], for which the “Yeast V-ATPase activity” value at Yeast V-ATPase is reported as “modest inhibition”. Also, the “V-ATPase-dependent proton transport (ATP-dependent fluorescence quenching)” value in data set [1] is reported as “inhibited V-ATPase-dependent proton transport; also recorded: ATP-dependent fluorescence quenching was not observed”. Moreover, the “tumor volume vs vehicle” value in data set [2] (athymic mice) is “significantly lower”. Further, in data set [2] (end point), the “tumor mass vs vehicle” value is on record as “lower”. Besides, the “tissue weight of treated mice vs vehicle” value in data set [2] (mice bearing A549 xenografts) was “No significant difference in tissue weight”. This molecule returned an inhibition at 30 µM against hERG of 0%. The IC50 in the data set with MEFs KRASWT is 1250 nM; with MEFs KRAS Q61R, 550 nM.

These data come from PMC9750872, “Ras-mutant cancers are sensitive to small molecule inhibition of V-type ATPases in mice” (Nature biotechnology, 2022).
